These results are taken from ChEMBL document CHEMBL1697781, “Assessment of the health effects of chemicals in humans: II. Construction of an adverse effects database for QSAR modeling” (Curr Drug Discov Technol, 2004).

Holding throughout (details): human
Data set [1] relates to Hepatotoxicity. In words: FDA HLAED, alkaline phosphatase increase.
The test system of data set [2] is Hepatotoxicity. Briefly: FDA HLAED, lactate dehydrogenase (LDH) increase.
In data set [3] the test system is Hepatotoxicity. Briefly: FDA HLAED, liver enzyme composite activity.
Data set [4] deals with Hepatotoxicity. In words: FDA HLAED, serum glutamic pyruvic transaminase (SGPT) increase.
In data set [5] the test system is Hepatotoxicity. In words: FDA HLAED, serum glutamic oxaloacetic transaminase (SGOT) increase.
Data set [6] concerns Hepatotoxicity. In words: FDA HLAED, gamma-glutamyl transferase (GGT) increase.
Wherever GGT Increase - Index Value is given: reference of the scale not given here.
Wherever LDH Increase - Index Value is given: reference of the scale not given here.

Regarding `CC(CCc1ccc(O)cc1)NCCc1ccc(O)c(O)c1` (configuration not stated) [DOBUTAMINE], in the data set on Hepatotoxicity [1], the “Alkaline Phosphatase Increase - Activity Score” value is reported as “Inactive”, the “Alkaline Phosphatase Increase - Index Value” amounted to 0 and the “Alkaline Phosphatase Increase - Number of Reports” value is reported as < 4. Also, in the data set on Hepatotoxicity [2], the “LDH Increase - Activity Score” value is on record as “Inactive”, the “LDH Increase - Index Value” is 0 and the “LDH Increase - Number of Reports” value is < 4. Also, in the data set on Hepatotoxicity [3], the “Composite Activity - Active” value was 0, the “Composite Activity - Marginal” value was 0 and the “Composite Activity - Score” value is given as “Inactive”. For the same molecule, in the data set on Hepatotoxicity [4], the “SGPT Increase - Activity Score” value was “Inactive”, the “SGPT Increase - Index Value” is 0 and the “SGPT Increase - Number of Reports” value is < 4. In the data set on Hepatotoxicity [5], the “SGOT Increase - Activity Score” value is on record as “Inactive”, the “SGOT Increase - Index Value” is reported as 0 and the “SGOT Increase - Number of Reports” value was < 4. For the same molecule, in the data set on Hepatotoxicity [6], the “GGT Increase - Activity Score” value was “Inactive”, the “GGT Increase - Index Value” was 0 and the “GGT Increase - Number of Reports” value is listed as < 4.

On to `CC(=O)O[C@@]12CO[C@@H]1C[C@H](O)[C@@]1(C)C(=O)[C@H](O)C3=C(C)[C@@H](OC(=O)[C@H](O)[C@@H](NC(=O)OC(C)(C)C)c4ccccc4)C[C@@](O)([C@@H](OC(=O)c4ccccc4)[C@H]21)C3(C)C.O.O.O` [DOCETAXEL], for which, in the data set with Hepatotoxicity [1], the “Alkaline Phosphatase Increase - Activity Score” value was “Inactive” and the “Alkaline Phosphatase Increase - Number of Reports” value is listed as < 4. Besides, in the data set with Hepatotoxicity [2], the “LDH Increase - Activity Score” value is given as “Inactive” and the “LDH Increase - Number of Reports” value is recorded as < 4. In addition, in the data set on Hepatotoxicity [3], the “Composite Activity - Active” value was determined as 0, the “Composite Activity - Marginal” value turned out to be 0 and the “Composite Activity - Score” value is listed as “Inactive”. In addition, in the data set with Hepatotoxicity [4], the “SGPT Increase - Activity Score” value was “Inactive” and the “SGPT Increase - Number of Reports” value is reported as < 4. Besides, in the data set with Hepatotoxicity [5], the “SGOT Increase - Activity Score” value is given as “Inactive” and the “SGOT Increase - Number of Reports” value is < 4. Besides, in the data set with Hepatotoxicity [6], the “GGT Increase - Activity Score” value is recorded as “Inactive” and the “GGT Increase - Number of Reports” value is on record as < 4.

Regarding `CCN[C@H]1C[C@H](C)S(=O)(=O)c2sc(S(N)(=O)=O)cc21` [DORZOLAMIDE], in the data set with Hepatotoxicity [1], the “Alkaline Phosphatase Increase - Activity Score” value is on record as “Inactive”, the “Alkaline Phosphatase Increase - Index Value” is 0 and the “Alkaline Phosphatase Increase - Number of Reports” value is < 4. Moreover, in the data set with Hepatotoxicity [2], the “LDH Increase - Activity Score” value is reported as “Inactive”, the “LDH Increase - Index Value” was found to be 0.1 and the “LDH Increase - Number of Reports” value was < 4. Also, in the data set with Hepatotoxicity [3], the “Composite Activity - Active” value is recorded as 0, the “Composite Activity - Marginal” value was 0 and the “Composite Activity - Score” value is listed as “Inactive”. In addition, in the data set with Hepatotoxicity [4], the “SGPT Increase - Activity Score” value was “Inactive”, the “SGPT Increase - Index Value” came out at 0.1 and the “SGPT Increase - Number of Reports” value is listed as < 4. In addition, in the data set with Hepatotoxicity [5], the “SGOT Increase - Activity Score” value was “Inactive”, the “SGOT Increase - Index Value” was found to be 0.2 and the “SGOT Increase - Number of Reports” value is given as < 4. In the data set with Hepatotoxicity [6], the “GGT Increase - Activity Score” value was “Inactive”, the “GGT Increase - Index Value” was 0 and the “GGT Increase - Number of Reports” value is listed as < 4.

In the case of `COc1cc(CC2c3c(cc(OC)c(OC)c3OC)CC[N+]2(C)CCCOC(=O)CCC(=O)OCCC[N+]2(C)CCc3cc(OC)c(OC)c(OC)c3C2Cc2cc(OC)c(OC)c(OC)c2)cc(OC)c1OC.[Cl-].[Cl-]` (configuration not stated) [DOXACURIUM CHLORIDE], in the data set on Hepatotoxicity [1], the “Alkaline Phosphatase Increase - Activity Score” value is “Inactive”, the “Alkaline Phosphatase Increase - Index Value” is listed as 0 and the “Alkaline Phosphatase Increase - Number of Reports” value is on record as < 4. Besides, in the data set on Hepatotoxicity [2], the “LDH Increase - Activity Score” value is “Inactive”, the “LDH Increase - Index Value” is reported as 0 and the “LDH Increase - Number of Reports” value is reported as < 4. In the data set with Hepatotoxicity [3], the “Composite Activity - Active” value is on record as 0, the “Composite Activity - Marginal” value turned out to be 0 and the “Composite Activity - Score” value is on record as “Inactive”. For the same molecule, in the data set on Hepatotoxicity [4], the “SGPT Increase - Activity Score” value was “Inactive”, the “SGPT Increase - Index Value” is 0 and the “SGPT Increase - Number of Reports” value is listed as < 4. Also, in the data set on Hepatotoxicity [5], the “SGOT Increase - Activity Score” value is “Inactive”, the “SGOT Increase - Index Value” amounted to 0 and the “SGOT Increase - Number of Reports” value is reported as < 4. Moreover, in the data set on Hepatotoxicity [6], the “GGT Increase - Activity Score” value was “Inactive”, the “GGT Increase - Index Value” is 0 and the “GGT Increase - Number of Reports” value was < 4.

As to `COc1cc2nc(N3CCN(C(=O)C4COc5ccccc5O4)CC3)nc(N)c2cc1OC` (configuration not stated) [DOXAZOSIN], in the data set on Hepatotoxicity [1], the “Alkaline Phosphatase Increase - Activity Score” value is on record as “Inactive”, the “Alkaline Phosphatase Increase - Index Value” was determined as 0.2 and the “Alkaline Phosphatase Increase - Number of Reports” value is < 4. Besides, in the data set with Hepatotoxicity [2], the “LDH Increase - Activity Score” value is reported as “Inactive”, the “LDH Increase - Index Value” is listed as 0.2 and the “LDH Increase - Number of Reports” value is < 4. Besides, in the data set with Hepatotoxicity [3], the “Composite Activity - Active” value turned out to be 0, the “Composite Activity - Marginal” value is 0 and the “Composite Activity - Score” value is “Inactive”. In the data set on Hepatotoxicity [4], the “SGPT Increase - Activity Score” value was “Inactive”, the “SGPT Increase - Index Value” was found to be 0.5 and the “SGPT Increase - Number of Reports” value is “>= 4”. Also, in the data set on Hepatotoxicity [5], the “SGOT Increase - Activity Score” value was “Inactive”, the “SGOT Increase - Index Value” is recorded as 0.3 and the “SGOT Increase - Number of Reports” value was < 4. In the data set with Hepatotoxicity [6], the “GGT Increase - Activity Score” value was “Inactive”, the “GGT Increase - Index Value” is 0.2 and the “GGT Increase - Number of Reports” value is given as < 4.

Regarding `CCCCCc1cc(O)c2c(c1)OC(C)(C)[C@@H]1CCC(C)=C[C@@H]21` [DRONABINOL], in the data set on Hepatotoxicity [1], the “Alkaline Phosphatase Increase - Activity Score” value was “Inactive”, the “Alkaline Phosphatase Increase - Index Value” stood at 0 and the “Alkaline Phosphatase Increase - Number of Reports” value is given as < 4. For the same molecule, in the data set on Hepatotoxicity [2], the “LDH Increase - Activity Score” value is given as “Inactive”, the “LDH Increase - Index Value” was determined as 0 and the “LDH Increase - Number of Reports” value is < 4. For the same molecule, in the data set with Hepatotoxicity [3], the “Composite Activity - Active” value was 0, the “Composite Activity - Marginal” value was found to be 0 and the “Composite Activity - Score” value was “Inactive”. In the data set on Hepatotoxicity [4], the “SGPT Increase - Activity Score” value was “Inactive”, the “SGPT Increase - Index Value” is reported as 0 and the “SGPT Increase - Number of Reports” value is reported as < 4. In addition, in the data set on Hepatotoxicity [5], the “SGOT Increase - Activity Score” value is “Inactive”, the “SGOT Increase - Index Value” was 0 and the “SGOT Increase - Number of Reports” value was < 4. For the same molecule, in the data set on Hepatotoxicity [6], the “GGT Increase - Activity Score” value was “Inactive”, the “GGT Increase - Index Value” was 0 and the “GGT Increase - Number of Reports” value was < 4.

Consider `Clc1ccc(COC(Cn2ccnc2)c2ccc(Cl)cc2Cl)cc1` (configuration not stated) [ECONAZOLE], for which, in the data set with Hepatotoxicity [1], the “Alkaline Phosphatase Increase - Activity Score” value is reported as “Inactive”, the “Alkaline Phosphatase Increase - Index Value” is listed as 0 and the “Alkaline Phosphatase Increase - Number of Reports” value is recorded as < 4. Further, in the data set with Hepatotoxicity [2], the “LDH Increase - Activity Score” value is “Inactive”, the “LDH Increase - Index Value” is reported as 0 and the “LDH Increase - Number of Reports” value was < 4. In addition, in the data set with Hepatotoxicity [3], the “Composite Activity - Active” value was 0, the “Composite Activity - Marginal” value was 0 and the “Composite Activity - Score” value is given as “Inactive”. Further, in the data set with Hepatotoxicity [4], the “SGPT Increase - Activity Score” value was “Inactive”, the “SGPT Increase - Index Value” came out at 0 and the “SGPT Increase - Number of Reports” value is recorded as < 4. In the data set with Hepatotoxicity [5], the “SGOT Increase - Activity Score” value was “Inactive”, the “SGOT Increase - Index Value” amounted to 0 and the “SGOT Increase - Number of Reports” value is on record as < 4. Moreover, in the data set on Hepatotoxicity [6], the “GGT Increase - Activity Score” value is given as “Inactive”, the “GGT Increase - Index Value” stood at 0 and the “GGT Increase - Number of Reports” value was < 4.

Take `COc1ccc(C(=O)Nc2ccccc2CCC2CCCCN2C)cc1` (configuration not stated) [ENCAINIDE]: in the data set with Hepatotoxicity [1], the “Alkaline Phosphatase Increase - Activity Score” value was “Marginally Active”, the “Alkaline Phosphatase Increase - Index Value” is listed as 3.6 and the “Alkaline Phosphatase Increase - Number of Reports” value was “>= 4”. In the data set with Hepatotoxicity [2], the “LDH Increase - Activity Score” value was “Active”, the “LDH Increase - Index Value” is listed as 4.1 and the “LDH Increase - Number of Reports” value was “>= 4”. Also, in the data set on Hepatotoxicity [3], the “Composite Activity - Active” value stood at 3, the “Composite Activity - Marginal” value was 1 and the “Composite Activity - Score” value is “Active”. In addition, in the data set with Hepatotoxicity [4], the “SGPT Increase - Activity Score” value is reported as “Active”, the “SGPT Increase - Index Value” worked out at 7.7 and the “SGPT Increase - Number of Reports” value is recorded as “>= 4”. Further, in the data set with Hepatotoxicity [5], the “SGOT Increase - Activity Score” value is listed as “Active”, the “SGOT Increase - Index Value” was determined as 12.4 and the “SGOT Increase - Number of Reports” value is given as “>= 4”. In the data set on Hepatotoxicity [6], the “GGT Increase - Activity Score” value is listed as “Inactive”, the “GGT Increase - Index Value” is recorded as 0 and the “GGT Increase - Number of Reports” value is given as < 4.

For `CCn1cc(C(=O)O)c(=O)c2cc(F)c(N3CCNCC3)nc21` [ENOXACIN], in the data set on Hepatotoxicity [1], the “Alkaline Phosphatase Increase - Activity Score” value is reported as “Inactive”, the “Alkaline Phosphatase Increase - Index Value” was determined as 0 and the “Alkaline Phosphatase Increase - Number of Reports” value was < 4. Further, in the data set with Hepatotoxicity [2], the “LDH Increase - Activity Score” value is on record as “Inactive”, the “LDH Increase - Index Value” came out at 0 and the “LDH Increase - Number of Reports” value is reported as < 4. Moreover, in the data set with Hepatotoxicity [3], the “Composite Activity - Active” value is 0, the “Composite Activity - Marginal” value is 0 and the “Composite Activity - Score” value is reported as “Inactive”. Moreover, in the data set with Hepatotoxicity [4], the “SGPT Increase - Activity Score” value is given as “Inactive”, the “SGPT Increase - Index Value” is 0 and the “SGPT Increase - Number of Reports” value is recorded as < 4. Further, in the data set on Hepatotoxicity [5], the “SGOT Increase - Activity Score” value was “Inactive”, the “SGOT Increase - Index Value” amounted to 0 and the “SGOT Increase - Number of Reports” value is on record as < 4. For the same molecule, in the data set on Hepatotoxicity [6], the “GGT Increase - Activity Score” value is given as “Inactive”, the “GGT Increase - Index Value” amounted to 0 and the “GGT Increase - Number of Reports” value is < 4.
